Marks after values point to notes of the source that are not given here. Square brackets hold non-standard residues; d marks the D form. Peptide text beside a SMILES is read from it. Nle = CCCC[C@H](N)C(=O)O
Assays:
[1] = test system: small intestine; assay: Intestine weight model in rats; format: in vivo, SD rats; conditions: for Small intestine weight increase over vehicle (%): MAL-FMS-V4 compared to Vehicle 2
Procedure, shortened: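 Rat intestinal growth model: conjugates given s.c. at 0.5–8.0 mg/kg peptide dose, as one injection, on days 1 and 3, or every 6 days; small intestine weighed on day 3, 6, 7, 10, 12 or 14. Histology (H&E, duodenum/jejunum/ileum) gave crypt+villus length. Both reported as % increase over vehicle.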

[2] = Pharmacokinetics of modified GLP-2 variants in rats; format: in vivo; conditions: rat, serum, peptide dose 15 mg/kg
[3] = 2-compartmental pharmacokinetic modelling (MONOLIX 2018R2); format: in vivo, rat; conditions: rat, in vivo
Protocol: An in-depth PK modeling was performed to address the unexpected differences in half life, distribution, and pharmacological effect between V4, Cys-FMS-V4, and Apraglutide in the rat model. The analysis was performed with MONOLIX 2018R2 suite using a 2-compartmental pharmacokinetic model. The data used in this analysis was comprised from 3 independent experiments (data is presented as their average). The concentration versus time data of V4 that was formed from the Cys-FMS-V4 conjugate (the hydrolyzed peptide) was described appropriately using the values of the pharmacokinetic parameters of V4 peptide. Thus, the disposition of the hydrolyzed V4 was identical to that of the V4 peptide following the IV and SC administration.
The pharmacokinetics of Apraglutide in our studies was determined after SC administration. […] Based on this assumption, the values of volumes of distribution and clearance (Vpept, Vss, Vbeta, and CL) were calculated for Apraglutide (Table 13). The values of the other parameters of Apraglutide in Table 14 (the rate constants and the half-lives) are not dependent on this assumption.

With `CCCC[C@H](NC(=O)[C@H](CCC(=O)O)NC(=O)[C@H](CC(=O)O)NC(=O)[C@H](CO)NC(=O)[C@H](Cc1ccccc1)NC(=O)[C@H](CO)NC(=O)CNC(=O)[C@H](CCC(=O)O)NC(=O)CNC(=O)[C@@H](N)Cc1c[nH]cn1)C(=O)N[C@@H](CC(N)=O)C(=O)N[C@H](C(=O)N[C@H](C(=O)N[C@@H](CC(C)C)C(=O)N[C@@H](CC(=O)O)C(=O)N[C@@H](CC(C)C)C(=O)N[C@@H](CC(C)C)C(=O)N[C@@H](C)C(=O)N[C@@H](C)C(=O)N[C@@H](CCCNC(=N)N)C(=O)N[C@@H](CC(=O)O)C(=O)N[C@@H](Cc1ccccc1)C(=O)N[C@H](C(=O)N[C@@H](CC(N)=O)C(=O)N[C@@H](Cc1c[nH]c2ccccc12)C(=O)N[C@@H](CC(C)C)C(=O)N[C@H](C(=O)N[C@@H](CCC(N)=O)C(=O)N[C@H](C(=O)N[C@@H](CCCCN)C(=O)N[C@H](C(=O)N[C@H](C(=O)N[C@@H](CC(=O)O)C(N)=O)[C@@H](C)O)[C@@H](C)CC)[C@@H](C)O)[C@@H](C)CC)[C@@H](C)CC)[C@@H](C)CC)[C@@H](C)O` [Variant 4] (H-HGEGSFSDE[Nle]NTILDLLAARDFINWLIQTKITD-NH2) the “Small intestine weight percent increase over vehicle (FIG. 12)” value ([1]; Study 15203, single SC 2 mg/kg peptide content on Day 1, Days 6 and 10) was “the most favorable results”, the “Small intestine weight percent increase over vehicle (FIG. 15)” value ([1]; Study 15205, single SC 0.5, 2.0 or 8.0 mg/kg, Days 3, 7 and 14) was “reached maximal acute response at day 3” and the “Increase of intestine weight over vehicle (%)” value ([1]; modified peptides, two injections on days 1 & 3 at 1 mg/kg, intestine weight on day 6) was 89%. The “Avg. small intestine weight (gr)” value ([1]; normal SD rats, injected once at 2 mg/kg peptide dose, 6th day) was 7.0 gr, the “Small intestine weight increase over vehicle (%)” value ([1]; normal SD rats, injected once at 2 mg/kg peptide dose, 6th day, listed as V4, 2 mg/kg) was 43.0** % and the “Small intestine weight increase over vehicle (%)” value ([1]; normal SD rats, injected once at 2 mg/kg peptide dose, 6th day, listed as V4 peptide, 2 mg/kg) was “the most pronounced effect on the small intestine weight”. The half-life [2] was 17.5 h, the “Fold increase of Vbeta as compared to the initial volume of distribution” value [3] was ~51 fold and the “Fold increase of Vss as compared to the initial volume of distribution” value [3] was ~8 fold. For the same molecule, the “Ratio (V4/Apraglutide) of CL” value [3] was 0.96, the “Ratio (V4/Apraglutide) of Fpept” value [3] was 0.54 and the “Ratio (V4/Apraglutide) of Vbeta” value [3] was 1.52. The “Ratio (V4/Apraglutide) of Vpept” value [3] was 0.40, the “Ratio (V4/Apraglutide) of Vss” value [3] was 1.68 and the “Ratio (V4/Apraglutide) of k12” value [3] was 11.60. The “Ratio (V4/Apraglutide) of k21” value [3] was 1.54, the “Ratio (V4/Apraglutide) of ka—pept” value [3] was 0.44 and the “Ratio (V4/Apraglutide) of kpepte” value [3] was 2.40. For the same molecule, the “Ratio (V4/Apraglutide) of t1/2 absorption” value [3] was 2.28, the “Ratio (V4/Apraglutide) of t1/2 alpha” value [3] was 0.17 and the “Ratio (V4/Apraglutide) of t1/2 beta” value [3] was 1.57. For the same molecule, the k12 [3] was 0.0749 h⁻¹, the k21 [3] was 0.0105 h⁻¹ and the “ka—pept” value [3] was 0.0729 h⁻¹. For the same molecule, the kpepte [3] was 0.205 h⁻¹, the t1/2 beta [3] was 173.2 h and the bioavailability ([3]; Bioavailability lower in comparison to Apraglutide) was 46%. For the same molecule, the “Bioavailability following SC injection (reaching the systemic circulation)” value ([3]; sc) was 40.1%, the CL ([3]; sc) was 0.215 mL/min/kg and the Fpept ([3]; sc) was 0.401. The “Local degradation of the dose at the injection site” value ([3]; sc) was ~60%, the Vd ([3]; sc) was 3.21 L/kg and the Vpept ([3]; sc) was 0.0627 L/kg. For the same molecule, the Vss ([3]; sc) was 0.51 L/kg, the t1/2 absorption ([3]; sc) was 9.51 h and the bioavailability ([3]; sc, Bioavailability following SC injection (reaching the systemic circulation)) was ~40%. For the same molecule, the half-life ([3]; sc, t1/2 absorption) was 9.51 h, the half-life ([3]; t1/2 alpha) was 1.29 h and the half-life ([3]; t1/2 beta) was 173 h.

From patent publication US20200254065A1, “LONG-ACTING GLP-2 ANALOGS” (OPKO Biologics Ltd., priority 2019, published 2020)
